The numbers were not newly measured in patent US20230056488A1, “COMPOSITION, ARTICLE AND METHOD FOR AFFECTING A MAMMAL” (COOLHOUSE SOURCING LLC, priority 2020, published 2023), which cites them from elsewhere.

The conditions of data set [1]: laboratory and animal research.
For data set [2] the following is noted: in vivo.
Data set [3] relates to ionotropic glutamate receptors.
The conditions of data set [4]: oral and parenteral forms.

`CCCCCc1cc(O)c2c(c1)OC(C)(C)[C@@H]1CCC(C)=C[C@@H]21` [THC, tetrahydrocannabinol]: the toxicity to dogs entry is “toxic to dogs”.

On to `CCCc1cc(O)c2c(c1)OC(C)(C)[C@@H]1CCC(C)=C[C@@H]21` [THCV, Tetrahydrocannabivarin], for which the anti-inflammatory effects result in data set [1] is on record as “some anti-inflammatory effects”. Take `CCNC(=O)CC[C@H](N)C(=O)O` [Theanine, theanine]: the “crossing of the blood brain barrier” value in data set [2] is “cross the blood brain barrier (“BBB”) intact”. For the same molecule, the “binding to ionotropic glutamate receptors (AMPA and kainate receptors; lesser extent NMDA)” value in data set [3] is given as “micromolar range”. For the molecule `C[S@@+](CC[C@H](N)C(=O)[O-])C[C@H]1O[C@@H](n2cnc3c(N)ncnc32)[C@H](O)[C@@H]1O` [SAMe, (S)-2-amino-4-((SS)-(((2S,3S,4R,5R)-5-(6-amino-9H-purin-9-yl)-3,4-dihydroxytetrahydrofuran-2-yl)methyl)(methyl)sulfonio)butanoate], the “crossing of the blood-brain barrier / cerebrospinal fluid concentrations” value in data set [4] was “cross the blood-brain barrier and increase concentrations in cerebrospinal fluid”.
